Target: Stimulator of interferon genes protein (Homo sapiens, UniProt Q86WV6)
Experiment: Agonist activity at STING in digitonin-permeabilized human THP1-Dual cells expressing NF-kappaB-SEAP and IRF-Lucia luciferase reporter assessed as increase in IRF-luciferase activation incubated for 24 hrs by QUANTI-Luc assay
Format: cell-based

Stimulator of interferon genes protein, sequence (Q86WV6 whole entry): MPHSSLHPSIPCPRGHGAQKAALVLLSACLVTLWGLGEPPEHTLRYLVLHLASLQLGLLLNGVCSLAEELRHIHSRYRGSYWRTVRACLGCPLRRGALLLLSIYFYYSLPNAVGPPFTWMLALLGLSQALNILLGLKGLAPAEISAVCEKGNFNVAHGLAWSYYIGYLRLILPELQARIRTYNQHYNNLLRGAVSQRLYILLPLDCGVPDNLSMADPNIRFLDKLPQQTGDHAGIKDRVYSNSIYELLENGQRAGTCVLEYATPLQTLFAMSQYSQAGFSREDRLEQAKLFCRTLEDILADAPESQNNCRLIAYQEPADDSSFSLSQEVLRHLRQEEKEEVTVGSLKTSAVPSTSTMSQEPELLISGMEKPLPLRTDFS

Row | Compound | EC50
1 | CCn1nc(C)cc1C(=O)Nc1nc2cc(C(N)=O)cc(OC)c2n1C/C=C/Cn1c(NC(=O)c2cc(C)nn2CC)nc2cc(C(N)=O)cc(OCCCN)c21 | 10 nM
2 | CCc1ncoc1C(=O)/N=c1\sc2cc(C(N)=O)cc(OC)c2n1C/C=C/Cn1c(NC(=O)c2ocnc2CC)nc2cc(C(N)=O)cc(OCCCO)c21 | > 100000 nM
3 | CCc1nc(C)oc1C(=O)Nc1nc2cc(C(N)=O)cc(OC)c2n1C/C=C/Cn1c(NC(=O)c2oc(C)nc2CC)nc2cc(C(N)=O)cc(OCCCO)c21 | 1 nM
4 | CCn1nc(C)cc1C(=O)Nc1nc2cc(C(N)=O)cc(OC)c2n1C/C=C/Cn1c(NC(=O)c2cc(C)nn2CC)nc2cc(C(N)=O)cc(OCCCO)c21 | 1 nM
5 | CCc1nc(C)oc1C(=O)Nc1nc2cc(C(N)=O)cc(OCCCO)c2n1C/C=C/Cn1/c(=N/C(=O)c2cc(C)nn2CC)sc2cc(C(N)=O)cc(OC)c21 | 20 nM
6 | CCc1nc(C)oc1C(=O)Nc1nc2cc(C(N)=O)cc(OCCCO)c2n1C/C=C/Cn1c(NC(=O)c2cc(C)nn2CC)nc2cc(C(N)=O)cnc21 | 4 nM
7 | CCc1nc(C)oc1C(=O)/N=c1\sc2cc(C(N)=O)cc(OC)c2n1C/C=C/Cn1c(NC(=O)c2oc(C)nc2CC)nc2cc(C(N)=O)cc(OCCCO)c21 | 60 nM
8 | CCc1nn(C)cc1C(=O)Nc1nc2cc(C(N)=O)cc(OC)c2n1C/C=C/Cn1c(NC(=O)c2cn(C)nc2CC)nc2cc(C(N)=O)cc(OCCCO)c21 | 5000 nM
9 | COc1cc(C(N)=O)cc2nc(NC(=O)c3cnc(C)n3C)n(C/C=C/Cn3c(NC(=O)c4cnc(C)n4C)nc4cc(C(N)=O)cc(OCCCO)c43)c12 | > 100000 nM
10 | CCn1nc(C)cc1C(=O)Nc1nc2cc(C(N)=O)cnc2n1C/C=C/Cn1c(NC(=O)c2cc(C)nn2CC)nc2cc(C(N)=O)cc(OCCCO)c21 | 60 nM
11 | CCc1nc(C)oc1C(=O)/N=c1\sc2cc(C(N)=O)cc(OCCCO)c2n1C/C=C/Cn1c(NC(=O)c2oc(C)nc2CC)nc2cc(C(N)=O)cnc21 | 150 nM
12 | CCc1nc(C)sc1C(=O)Nc1nc2cc(C(N)=O)cc(OCCCO)c2n1C/C=C/Cn1c(NC(=O)c2cc(C)nn2CC)nc2cc(C(N)=O)cc(OC)c21 | 20 nM
13 | COc1cc(C(N)=O)cc2nc(NC(=O)c3nc(C)oc3C)n(C/C=C/Cn3c(NC(=O)c4nc(C)oc4C)nc4cc(C(N)=O)cc(OCCCO)c43)c12 | > 100000 nM
14 | CCc1nc(C)oc1C(=O)Nc1nc2cc(C(N)=O)cc(OCCCO)c2n1C/C=C/Cn1c(NC(=O)c2cc(C)nn2CC)nc2cc(C(N)=O)cc(OC)c21 | 1 nM
15 | CCc1nc(C)oc1C(=O)Nc1nc2cc(C(N)=O)cc(OC)c2n1C/C=C/Cn1c(NC(=O)c2cc(C)nn2CC)nc2cc(C(N)=O)cc(OCCCO)c21 | 9 nM
16 | CCc1nc(C)oc1C(=O)Nc1nc2cc(C(N)=O)cnc2n1C/C=C/Cn1c(NC(=O)c2oc(C)nc2CC)nc2cc(C(N)=O)cc(OCCCO)c21 | 7 nM
17 | CCc1nc(C)oc1C(=O)/N=c1\sc2cc(C(N)=O)cnc2n1C/C=C/Cn1c(NC(=O)c2oc(C)nc2CC)nc2cc(C(N)=O)cc(OCCCO)c21 | 90 nM
18 | CCc1nc(C)oc1C(=O)Nc1nc2cc(C(N)=O)cc(OC)c2n1C/C=C/Cn1c(NC(=O)c2cnc(C)o2)nc2cc(C(N)=O)cc(OCCCO)c21 | > 100000 nM
19 | COc1cc(C(N)=O)cc2nc(NC(=O)c3cnc(C)o3)n(C/C=C/Cn3c(NC(=O)c4cnc(C)o4)nc4cc(C(N)=O)cc(OCCCO)c43)c12 | > 100000 nM
20 | CCn1nc(C)cc1C(=O)/N=c1\sc2cc(C(N)=O)cc(OC)c2n1C/C=C/Cn1c(NC(=O)c2oc(C)nc2C)nc2cc(C(N)=O)cc(OCCCO)c21 | > 100000 nM
21 | CCc1nn(C)cc1C(=O)Nc1nc2cc(C(N)=O)cc(OCCCO)c2n1C/C=C/Cn1c(NC(=O)c2cc(C)nn2CC)nc2cc(C(N)=O)cc(OC)c21 | 20 nM
22 | CCc1nc(C)sc1C(=O)Nc1nc2cc(C(N)=O)cc(OC)c2n1C/C=C/Cn1c(NC(=O)c2sc(C)nc2CC)nc2cc(C(N)=O)cc(OCCCO)c21 | 270 nM
23 | CCn1nc(C)cc1C(=O)Nc1nc2cc(C(N)=O)cnc2n1C/C=C/Cn1c(NC(=O)c2oc(C)nc2C)nc2cc(C(N)=O)cc(OCCCO)c21 | 3200 nM
24 | CCn1nc(C)cc1C(=O)Nc1nc2cc(C(N)=O)cc(OC)c2n1C/C=C/Cn1c(NC(=O)c2cc(C)nn2CC)nc2cc(C(N)=O)cc(OCCCC(=O)O)c21 | 18 nM
25 | CCn1nc(C)cc1C(=O)/N=c1\sc2cc(C(N)=O)cc(OC)c2n1C/C=C/Cn1c(NC(=O)c2cc(C)nn2CC)nc2cc(C(N)=O)cc(OCCCO)c21 | 5 nM
